Tests used:
[1] = Inhibition of recombinant his tagged IMP1 (unknown origin) expressed in Escherichia coli (DE3) cells using FC5 as substrate by microplate reader assay
[2] = Inhibition of recombinant his tagged VIM-2 (unknown origin) expressed in Escherichia coli (DE3) cells using FC5 as substrate by microplate reader assay
[3] = Inhibition of recombinant VIM-1 (unknown origin) expressed in Escherichia coli (DE3) cells using FC5 as substrate by microplate reader assay
[4] = Inhibition of recombinant VIM-5 (unknown origin) expressed in Escherichia coli (DE3) cells using FC5 as substrate by microplate reader assay
[5] = Inhibition of recombinant NDM1 (unknown origin) expressed in Escherichia coli (DE3) cells using FC5 as substrate by microplate reader assay
Escherichia coli [6] = assay: Antibacterial activity against Escherichia coli BAA2452 expressing blaNDM-1 clinical isolates assessed as fold potentiation incubated for 16 to 18 hrs by broth microdilution method; format: functional; settings: time 16-18 hrs; also: test concentration or dose not given here
Escherichia coli [7] = assay: Antibacterial activity against Escherichia coli C1580 expressing blaIMP-1 clinical isolates assessed as meropenem MIC incubated for 16 to 18 hrs by broth microdilution method; format: functional; settings: time 16-18 hrs; also: test concentration or dose not given here
Enterobacterales [8] = assay: Antibacterial activity against Carbapenem-Resistant Enterobacterales 19 expressing blaNDM-1 clinical isolates assessed as fold potentiation incubated for 16 to 18 hrs by broth microdilution method; format: functional; settings: time 16-18 hrs; also: test concentration or dose not given here
Enterobacterales [9] = assay: Antibacterial activity against Carbapenem-Resistant Enterobacterales 19 expressing blaNDM-1 clinical isolates assessed as meropenem MIC incubated for 16 to 18 hrs by broth microdilution method; format: functional; settings: time 16-18 hrs; also: test concentration or dose not given here
Escherichia coli [10] = assay: Antibacterial activity against Escherichia coli BAA2452 expressing blaNDM-1 clinical isolates assessed as meropenem MIC incubated for 16 to 18 hrs by broth microdilution method; format: functional; settings: time 16-18 hrs; also: test concentration or dose not given here
Escherichia coli [11] = assay: Antibacterial activity against Escherichia coli C1580 expressing blaIMP-1 clinical isolates assessed as fold potentiation incubated for 16 to 18 hrs by broth microdilution method; format: functional; settings: time 16-18 hrs; also: test concentration or dose not given here
Klebsiella pneumoniae [12] = assay: Antibacterial activity against Klebsiella pneumoniae BAA2470 expressing blaNDM-1 clinical isolates assessed as fold potentiation incubated for 16 to 18 hrs by broth microdilution method; format: functional; settings: time 16-18 hrs; also: test concentration or dose not given here
Escherichia coli [13] = assay: Antibacterial activity against Escherichia coli C1541 expressing blaVIM-2 clinical isolates assessed as meropenem MIC incubated for 16 to 18 hrs by broth microdilution method; format: functional; settings: time 16-18 hrs; also: test concentration or dose not given here
Klebsiella pneumoniae [14] = assay: Antibacterial activity against Klebsiella pneumoniae BAA2470 expressing blaNDM-1 clinical isolates assessed as meropenem MIC incubated for 16 to 18 hrs by broth microdilution method; format: functional; settings: time 16-18 hrs; also: test concentration or dose not given here
Escherichia coli [15] = assay: Antibacterial activity against Escherichia coli C1541 expressing blaVIM-2 clinical isolates assessed as fold potentiation incubated for 16 to 18 hrs by broth microdilution method; format: functional; settings: time 16-18 hrs; also: test concentration or dose not given here

Compound	IC50 [1]	IC50 [2]	IC50 [3]	IC50 [4]	IC50 [5]	fold change (FC) (Escherichia coli [6])	MIC (Escherichia coli [7])	fold change (FC) (Enterobacterales [8])	MIC (Enterobacterales [9])	MIC (Escherichia coli [10])	fold change (FC) (Escherichia coli [11])	fold change (FC) (Klebsiella pneumoniae [12])	MIC (Escherichia coli [13])	MIC (Klebsiella pneumoniae [14])	fold change (FC) (Escherichia coli [15])
O=P(O)(O)Cc1ccc(-n2cc(CNc3ccccc3)nn2)cc1	> 100 µM	13.3 µM	26.7 µM	7.43 µM	> 100 µM	–	–	–	–	–	–	–	–	–	–
Nc1cccc(-c2cn(-c3cccc(C(c4ccc(Cl)cc4)P(=O)(O)O)c3)nn2)c1 (stereo not drawn)	0.54 µM	0.001 µM	0.34 µM	0.00043 µM	0.67 µM	8	2 µg/mL	8	8 µg/mL	16 µg/mL	16	>2	1 µg/mL	64 µg/mL	16
Cc1cccc(-c2cn(-c3ccc(CP(=O)(O)O)cc3)nn2)c1	> 100 µM	2.03 µM	11.8 µM	1.16 µM	65.5 µM	–	–	–	–	–	–	–	–	–	–
CC(C)(C)c1cn(-c2cccc(CP(=O)(O)O)c2)nn1	9.5 µM	4.44 µM	24.6 µM	0.52 µM	27.1 µM	–	–	–	–	–	–	–	–	–	–
O=P(O)(O)Cc1cccc(-n2cc(-c3ccccc3Br)nn2)c1	1.9 µM	0.72 µM	7.16 µM	0.095 µM	5.2 µM	4	2 µg/mL	4	16 µg/mL	32 µg/mL	16	>1	4 µg/mL	128 µg/mL	4
CSc1ccc(C(c2cccc(-n3cc(-c4cccc(N)c4)nn3)c2)P(=O)(O)O)cc1 (stereo not drawn)	0.11 µM	0.001 µM	0.64 µM	0.00012 µM	0.5 µM	8	2 µg/mL	8	8 µg/mL	16 µg/mL	16	>2	1 µg/mL	64 µg/mL	16
Nc1cccc(-c2cn(-c3cccc(C(c4ccc(Br)cc4)P(=O)(O)O)c3)nn2)c1 (stereo not drawn)	0.44 µM	0.007 µM	0.2 µM	0.003 µM	0.66 µM	8	4 µg/mL	8	8 µg/mL	16 µg/mL	8	>2	1 µg/mL	64 µg/mL	16
N#Cc1ccc(C(c2cccc(-n3cc(-c4cccc(N)c4)nn3)c2)P(=O)(O)O)cc1 (stereo not drawn)	0.11 µM	0.052 µM	0.27 µM	0.003 µM	1.12 µM	8	2 µg/mL	8	8 µg/mL	16 µg/mL	16	>2	2 µg/mL	64 µg/mL	8
NCCOc1ccc(-c2cn(-c3cccc(C(=O)O)c3C(=O)O)nn2)cc1	1.83 µM	3.69 µM	> 100 µM	> 100 µM	> 100 µM	2	0.25 µg/mL	1	64 µg/mL	64 µg/mL	128	–	32 µg/mL	> 128 µg/mL	–
O=C(NCc1cn(-c2ccc(CP(=O)(O)O)cc2)nn1)C(F)(F)F	> 100 µM	27.2 µM	27.9 µM	31.8 µM	> 100 µM	–	–	–	–	–	–	–	–	–	–
Nc1ccccc1-c1cn(-c2ccc(CP(=O)(O)O)cc2)nn1	> 100 µM	2.48 µM	22.1 µM	2.28 µM	16.6 µM	–	–	–	–	–	–	–	–	–	–
NCc1cn(-c2cccc(CP(=O)(O)O)c2)nn1	> 100 µM	2.69 µM	23.9 µM	14.5 µM	> 100 µM	–	–	–	–	–	–	–	–	–	–

— ChEMBL document CHEMBL5620345, “Metal binding pharmacophore click-derived discovery of new broad-spectrum metallo-β-lactamase inhibitors” (Eur J Med Chem, 2023)
